Legend:
[1] = Radioactive metabolites in plasma, urine and feces after single oral dose of [14C] compound (I) to humans; format: in vivo, human; conditions: for Metabolites in Feces (0-168 hr), Human, % Dose / Metabolites in Feces (0-168 hr), Human, % Rad / Metabolites in Urine (0-168 hr), Human, % Dose / Metabolites in Urine (0-168 hr), Human, % Rad: oral 100-mg; for Metabolites in Feces (0-168 hr), Human, % Dose / Metabolites in Feces (0-168 hr), Human, % Rad: pooled fecal extracts 0-168 hr; for Metabolites in Urine (0-168 hr), Human, % Dose / Metabolites in Urine (0-168 hr), Human, % Rad: pooled urine 0-168 hr; for % Distribution of radioactive metabolites in pooled plasma, Human (2 h): oral 100-mg [14C] compound (I), plasma 2 h
Protocol: (§1) Plasma samples were segregated by collection time and equal volumes of individual plasma samples at a given time point were combined for biotransformation profiling.
(§2) The C-14 label was on the carbon-2 of the thiazole ring.
(§3) HPLC was performed on an Agilent 1100™ system equipped with binary pumps, autoinjector, and a column heater. A Phenomenex Synergy Polar-RP® column (4.6×250 mm, 5 micron) was used for metabolite separation. All HPLC analyses were performed at 1 mL/min flow rate at 35° C. The HPLC mobile phase consisted of (A) water with 0.1% formic acid and (B) acetonitrile with 0.1% formic acid.
(§4) Each fraction of column eluent was evaporated to dryness on a Savant Speed-Vac (Savant Instruments Inc., Holbrook, N.Y.) and counted for radioactivity with a Packard Top Count® microplate scintillation analyzer (Packard Biosciences, Downers Grove, Ill.).
(§5) The volumes of pooled plasma processed for HPLC analysis for rat, monkey and human ranged between 1.5 and 8.0 mL. Pooled plasma samples were extracted with methanol/acetonitrile (1:1) at a ratio of 2 volumes solvent to 1 volume of plasma. The mixtures were vortex mixed, sonicated for 5 min, and centrifuged at 3500 rpm for 10 min. The supernatants were transferred into new tubes. The remaining pellets were extracted two more times with 3 mL of methanol/acetonitrile (1:1). The supernatants were combined and evaporated to dryness in a Savant Speed-Vac (Savant Instruments, Inc., Holbrook, N.Y.). The residue was reconstituted into 0.35 to 0.45 mL of 30% acetonitrile in water, vortex mixed and centrifuged at 13000 rpm for 5 min (American Scientific Products Biofuge A centrifuge, Heraeus Sepatech GmbH, Germany). The supernatant was injected onto the HPLC for profiling. Aliquots of the reconstituted samples (30 μl) were also counted on the liquid scintillation counter (LSC) to determine the recovery of radioactivity.
(§6) The pooled monkey and human urine samples (3-5 mL) were extracted with 2 volumes of acetonitrile/acetone (1:1). The mixtures were vortex mixed, sonicated and centrifuged at 3500 rpm for 10 min. The supernatants were evaporated to dryness. The residue was suspended in 0.3-0.5 mL of 30% acetonitrile in water and centrifuged at 13000 rpm for 5 min. Aliquots of the supernatants were injected onto the HPLC or analyzed by LSC for radioactivity recovery. Pooled urine samples from BDC monkeys and rats were centrifuged at 13000 rpm for 10 min and injected onto the HPLC for profiling without further treatment.
(§7) The amount of fecal homogenate used for analysis was 0.20, 0.19 and 0.51 g for rat, monkey and human, respectively. Each pooled fecal homogenate was extracted by addition of 3 volumes of acetonitrile/methanol (1:1) to 1 volume of fecal homogenate and mixed on a vortex mixer. The mixture was sonicated for 5 min and then centrifuged at 3000 rpm for 10 min. The supernatants were removed and saved. The extraction was repeated two additional times and the supernatants were combined and evaporated to dryness on a Savant Speed-Vac. […] An aliquot of the supernatant was injected onto the HPLC or analyzed by LSC for radioactivity recovery.
(§8) The LC/MS system used for analysis of plasma, urine, bile, and fecal samples consisted of an Agilent 1100™ HPLC system connected to a Finnigan LCQ-DecaXP mass spectrometer. Samples were analyzed using positive electrospray ionization. The capillary temperature used for analysis was 320° C., and the nitrogen gas flow rate, spray current, and voltages were adjusted to give maximum sensitivity. The HPLC conditions were described in section 3.3.1.
(§9) Counts per min (CPM) were determined on a Packard TopCount NXT microplate scintillation and luminescence counter. For each injection, the average CPM value (2-4 CPM) obtained from fractions between 2-3 min (column void) in the chromatogram was subtracted from the CPM value of each fraction. Biotransformation profiles were prepared by plotting the background subtracted CPM values against time-after-injection.

[2] = Radioactive metabolites in plasma, urine and feces after single oral dose of [14C] compound (I) to rats; format: in vivo, Sprague-Dawley rat; conditions: for % Distribution of radioactive metabolites in pooled plasma, Rat (4 h): oral 15 mg/kg [14C] compound (I), plasma 4 h; for Metabolites in Feces (0-168 hr), Rat, % Dose / Metabolites in Feces (0-168 hr), Rat, % Rad (% of total radioactivity in sample) / Metabolites in Urine (0-168 hr), Rat, % Dose / Metabolites in Urine (0-168 hr), Rat, % Rad (% of total radioactivity in sample): oral 15 mg/kg; for Metabolites in Feces (0-168 hr), Rat, % Dose / Metabolites in Feces (0-168 hr), Rat, % Rad (% of total radioactivity in sample): pooled fecal extracts 0-168 hr; for Metabolites in Urine (0-168 hr), Rat, % Dose / Metabolites in Urine (0-168 hr), Rat, % Rad (% of total radioactivity in sample): pooled urine 0-168 hr
Protocol: as §1, §2, §3, §4, §5, §6, §7, §8, §9

[3] = In vivo metabolism of compound of formula I in bile duct cannulated rats by LC/UV/MSn; design: species or system rat; conditions: BDC rats; for Relative abundance in gastrointestinal samples from rats dosed orally: 10 mg/kg oral, GIT at 9 hour; for Relative abundance in rat bile / Relative abundance in rat urine: 10 mg/kg; for Relative abundance in rat bile: bile over 9 hour; for Relative abundance in rat urine: urine over 9 hour
Protocol: The in vivo metabolism of compound of formula I was investigated in bile duct cannulated rats (n=2), following a single dose of 10 mg/kg either intravenously (IV) as a 10 minute infusion or orally by gavage. The vehicle used was 50 mM sodium acetate buffer, pH 4.6. The rats were fasted overnight and for the duration of the study. Urine and bile were collected over a 9 hour period. The gastrointestinal tract (GIT) and feces were collected at the end of the 9 hour study period. GIT and feces were homogenized with 3 volumes of water and 3 volumes of acetonitrile per volume of GIT/feces. Blood samples were collected at 15, 30 minutes, 1, 2, 4, 6 and 9 hours after intravenous and oral dosing in tubes containing EDTA and plasma was prepared by centrifugation. Samples were stored at −20° C. until analysis.
Plasma samples were pooled across collection intervals and treated with two volumes of acetonitrile. After centrifugation, the supernatent was removed and evaporated to dryness. The residues were then redissolved in 300 μl of methanol:water (1:1). Bile and urine samples from the BDC rat study were pooled across collection intervals. Bile samples were purified by sep-pak purification on C8 cartridges. The samples were evaporated and the residue was redissolved in 300 μl of methanol:water (1:1). Urine samples were diluted one to one with methanol and analyzed without further purification. All samples were analyzed by LC/UV/MS^n.
The HPLC system consisted of Waters alliance 2690 separation module. The column used was a Phenomenex Curosil PFP, 4.6 mm×150 mm, 5 μ particles with a flow rate of 1.0 mL/min. The mobile phase consisted of 95/5 v/v Water/Methanol containing 0.1% formic acid (Solvent A) and Methanol (Solvent B). The initial mobile phase composition was 20% Solvent B. After sample injection, this composition was held for 0.5 minute at initial conditions then ramped to 80% solvent B up to 24.5 min, and ramped to 100% solvent B up to 28 minutes. The mobile phase was then returned to initial conditions and the column re-equilibrated for 5 minutes. Total analysis time was 33 minutes.
The HPLC was interfaced to a Finnigan's Photo Diode Array Detector (PDA: UV6000) in tandem with Finnigan Deca XP ion trap mass spectrometer. Deca XP mass spectrometer was equipped with an Electrospray ionization source (ESI) interface. The source was operated in a positive ion mode with capillary temperature of 350° C. and source voltage 5.0 kV. The UV profile was extracted at […] of 254 nm. UHP (Ultra High Purity) nitrogen was used as sheath and auxiliary gas. The normalized collision energy was set at 50% and the isolation width was 3.0 amu. Multiple MS experiments were performed in a single chromatographic run with the following data dependent settings: […]

Cc1nc(Nc2ncc(C(=O)Nc3c(C)cccc3Cl)s2)cc(N2CCNCC2)n1 [M4 (II)]
Metabolites in Feces (0-168 hr), Human, % Dose [1]: 2.6%
Metabolites in Feces (0-168 hr), Human, % Rad [1]: 3.1%
Metabolites in Urine (0-168 hr), Human, % Dose [1]: 0.05%
Metabolites in Urine (0-168 hr), Human, % Rad [1]: 1.3%
% Distribution of radioactive metabolites in pooled plasma, Rat (4 h) [2]: 2.6%
Metabolites in Feces (0-168 hr), Rat, % Dose [2]: 1.9%
Metabolites in Feces (0-168 hr), Rat, % Rad (% of total radioactivity in sample) [2]: 2.5%
Metabolites in Urine (0-168 hr), Rat, % Dose [2]: 0.3%
Metabolites in Urine (0-168 hr), Rat, % Rad (% of total radioactivity in sample) [2]: 4.4%
Relative abundance in gastrointestinal samples from rats dosed orally [3]: trace amounts

Cc1nc(Nc2ncc(C(=O)Nc3c(C)cccc3Cl)s2)cc(N2CC[N+]([O-])(CCO)CC2)n1 [M5 (III)]
% Distribution of radioactive metabolites in pooled plasma, Human (2 h) [1]: 4.5%
Metabolites in Urine (0-168 hr), Human, % Dose [1]: 1.4%
Metabolites in Urine (0-168 hr), Human, % Rad [1]: 39.8%
% Distribution of radioactive metabolites in pooled plasma, Rat (4 h) [2]: 18.7%
Metabolites in Urine (0-168 hr), Rat, % Dose [2]: 3.4%
Metabolites in Urine (0-168 hr), Rat, % Rad (% of total radioactivity in sample) [2]: 52.4%
Relative abundance in rat bile [3]: major metabolites
Relative abundance in rat urine [3]: major metabolite

Cc1nc(Nc2ncc(C(=O)Nc3c(C)cccc3Cl)s2)cc(N2CCN(CC(=O)O)CC2)n1 [M6 (IV), 2-(4-(6-(5-((2-Chloro-6-methylphenyl)carbamoyl)thiazol-2-ylamino)-2-methylpyrimidin-4-yl)piperazin-1-yl)acetic acid]
% Distribution of radioactive metabolites in pooled plasma, Human (2 h) [1]: 3.6%
Metabolites in Feces (0-168 hr), Human, % Dose [1]: 8.9%
Metabolites in Feces (0-168 hr), Human, % Rad [1]: 10.4%
Metabolites in Urine (0-168 hr), Human, % Dose [1]: 0.05%
Metabolites in Urine (0-168 hr), Human, % Rad [1]: 1.3%
% Distribution of radioactive metabolites in pooled plasma, Rat (4 h) [2]: 2.2%
Metabolites in Feces (0-168 hr), Rat, % Dose [2]: 13.2%
Metabolites in Feces (0-168 hr), Rat, % Rad (% of total radioactivity in sample) [2]: 17.3%
Metabolites in Urine (0-168 hr), Rat, % Dose [2]: 0.4%
Metabolites in Urine (0-168 hr), Rat, % Rad (% of total radioactivity in sample) [2]: 6.5%
Relative abundance in gastrointestinal samples from rats dosed orally [3]: trace amounts
Relative abundance in rat bile [3]: major metabolites

Cc1nc(Nc2ncc(C(=O)Nc3c(C)cc(O)cc3Cl)s2)cc(N2CCN(CCO)CC2)n1 [M20 (V)]
% Distribution of radioactive metabolites in pooled plasma, Human (2 h) [1]: 12.5%
Metabolites in Feces (0-168 hr), Human, % Dose [1]: 31.2%
Metabolites in Feces (0-168 hr), Human, % Rad [1]: 36.6%
Metabolites in Urine (0-168 hr), Human, % Dose [1]: 0.2%
Metabolites in Urine (0-168 hr), Human, % Rad [1]: 4.1%
Metabolites in Feces (0-168 hr), Rat, % Dose [2]: 7.6%
Metabolites in Feces (0-168 hr), Rat, % Rad (% of total radioactivity in sample) [2]: 9.9%
Metabolites in Urine (0-168 hr), Rat, % Dose [2]: 0.6%
Metabolites in Urine (0-168 hr), Rat, % Rad (% of total radioactivity in sample) [2]: 9.9%

Cc1nc(Nc2ncc(C(=O)Nc3c(Cl)cccc3CO)s2)cc(N2CCN(CCO)CC2)n1 [M24 (VI), N-(2-chloro-6-(hydroxymethyl)phenyl)-2-(6-(4-(2-hydroxyethyl)piperazin-1-yl)-2-methylpyrimidin-4-ylamino)thiazole-5-carboxamide]
% Distribution of radioactive metabolites in pooled plasma, Human (2 h) [1]: 3.1%
Metabolites in Feces (0-168 hr), Human, % Dose [1]: 4.0%
Metabolites in Feces (0-168 hr), Human, % Rad [1]: 4.7%
Metabolites in Urine (0-168 hr), Human, % Dose [1]: 0.2%
Metabolites in Urine (0-168 hr), Human, % Rad [1]: 6.0%
Metabolites in Feces (0-168 hr), Rat, % Dose [2]: 3.1%
Metabolites in Feces (0-168 hr), Rat, % Rad (% of total radioactivity in sample) [2]: 4.0%

Cc1nc(Nc2ncc(C(=O)Nc3c(C)cccc3Cl)s2)cc(N2CCN(CCO)CC2)n1 [Parent (I), N-(2-Chloro-6-methylphenyl)-2-[[6-[4-(2-hydroxyethyl)-1-piperazinyl]-2-methyl-4-pyrimidinyl]amino]-5-thiazolecarboxamide]
% Distribution of radioactive metabolites in pooled plasma, Human (2 h) [1]: 25.5%
Metabolites in Feces (0-168 hr), Human, % Dose [1]: 19.1%
Metabolites in Feces (0-168 hr), Human, % Rad [1]: 22.4%
Metabolites in Urine (0-168 hr), Human, % Dose [1]: 0.1%
Metabolites in Urine (0-168 hr), Human, % Rad [1]: 3.6%
% Distribution of radioactive metabolites in pooled plasma, Rat (4 h) [2]: 52.8%
Metabolites in Feces (0-168 hr), Rat, % Dose [2]: 41.6%
Metabolites in Feces (0-168 hr), Rat, % Rad (% of total radioactivity in sample) [2]: 54.5%
Metabolites in Urine (0-168 hr), Rat, % Dose [2]: 0.7%
Metabolites in Urine (0-168 hr), Rat, % Rad (% of total radioactivity in sample) [2]: 11.6%
Relative abundance in rat plasma ([3]; 10 mg/kg IV or oral, pooled plasma, LC/UV/MSn): major peak
Relative abundance in gastrointestinal samples from rats dosed orally [3]: major drug related peak
Relative abundance in rat urine [3]: trace amounts
